Assays:
COLO 205 = test: Cytotoxicity against human COLO205 cells after 24 hrs by MTT assay; assay type: functional, cell-based; details: COLO 205, 24 h
MDA-MB-231 = test: Cytotoxicity against human MDA-MB-231 cells after 24 hrs by MTT assay; assay type: functional, cell-based; details: MDA-MB-231, 24 h
K562 = test: Cytotoxicity against human K562 cells after 24 hrs by MTT assay; assay type: functional, cell-based; details: K562, 24 h
[1] = molecular target: T1, NAD-dependent protein deacetylase sirtuin-1 (Homo sapiens) (UniProt Q96EB6); test: Inhibition of human Sirt1 at 10 uM using fluorophore-labelled peptide as substrate measured after 15 mins by fluorescence assay relative to control
T1 sequence (whole entry): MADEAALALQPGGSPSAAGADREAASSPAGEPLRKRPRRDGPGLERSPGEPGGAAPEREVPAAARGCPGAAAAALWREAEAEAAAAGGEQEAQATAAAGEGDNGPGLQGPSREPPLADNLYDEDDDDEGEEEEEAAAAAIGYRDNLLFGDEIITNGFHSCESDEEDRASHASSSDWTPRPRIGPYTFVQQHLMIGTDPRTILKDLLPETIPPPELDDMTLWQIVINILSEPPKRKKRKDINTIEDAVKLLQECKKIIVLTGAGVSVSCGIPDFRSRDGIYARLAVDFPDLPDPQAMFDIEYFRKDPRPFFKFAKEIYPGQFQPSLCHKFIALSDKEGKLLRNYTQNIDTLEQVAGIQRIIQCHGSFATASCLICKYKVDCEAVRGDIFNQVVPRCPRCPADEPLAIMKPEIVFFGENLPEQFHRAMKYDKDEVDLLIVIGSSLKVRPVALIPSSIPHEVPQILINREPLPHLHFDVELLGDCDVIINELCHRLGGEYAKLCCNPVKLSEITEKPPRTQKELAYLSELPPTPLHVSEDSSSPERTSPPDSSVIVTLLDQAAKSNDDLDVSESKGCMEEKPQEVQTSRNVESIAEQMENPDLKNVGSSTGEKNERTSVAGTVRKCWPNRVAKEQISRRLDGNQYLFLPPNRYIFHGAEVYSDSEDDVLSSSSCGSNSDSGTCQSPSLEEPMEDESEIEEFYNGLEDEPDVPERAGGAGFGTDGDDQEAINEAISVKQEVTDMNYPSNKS

Compound	IC50 (COLO 205) [µM]	IC50 (MDA-MB-231) [µM]	IC50 (K562) [µM]	inhibition [1] [%]
Cc1ccc(C(=O)NC(Cc2ccccc2)C(=O)N2CCN(C3=Nc4ccccc4Sc4ccccc43)CC2)c(C)c1 (configuration not stated)	40	37	35	–
CC(=O)CCCC(=O)NC(Cc1ccccc1)C(=O)N1CCN(C2=Nc3ccccc3Sc3ccccc32)CC1 (configuration not stated)	33	52	32	–
COC(=O)CCCC(=O)NC(Cc1ccccc1)C(=O)N1CCN(C2=Nc3ccccc3Sc3ccccc32)CC1 (configuration not stated)	28	64	19	–
Cc1ccc(C)c(C(=O)NC(Cc2ccccc2)C(=O)N2CCN(C3=Nc4ccccc4Sc4ccccc43)CC2)c1 (configuration not stated)	12	34	16	54
O=C(NC(Cc1ccccc1)C(=O)N1CCN(C2=Nc3ccccc3Sc3ccccc32)CC1)c1ccoc1 (configuration not stated)	14	37	17	51
CCOC(=O)CCCC(=O)NC(Cc1ccccc1)C(=O)N1CCN(C2=Nc3ccccc3Sc3ccccc32)CC1 (configuration not stated)	36	48	20	–
Cc1ccc(Br)cc1C(=O)NC(Cc1ccccc1)C(=O)N1CCN(C2=Nc3ccccc3Sc3ccccc32)CC1 (configuration not stated)	16	49	27	–
Cc1ccc(C(=O)NC(Cc2ccccc2)C(=O)N2CCN(C3=Nc4ccccc4Sc4ccccc43)CC2)cn1 (configuration not stated)	34	54	39	–
CCc1ccc(C(=O)NC(Cc2ccccc2)C(=O)N2CCN(C3=Nc4ccccc4Sc4ccccc43)CC2)cc1 (configuration not stated)	25	44	21	–
O=C(NC(Cc1ccccc1)C(=O)N1CCN(C2=Nc3ccccc3Sc3ccccc32)CC1)c1ccc(OC(F)F)cc1 (configuration not stated)	10	39	12	71
N#Cc1ccc(C(=O)NC(Cc2ccccc2)C(=O)N2CCN(C3=Nc4ccccc4Sc4ccccc43)CC2)cc1 (configuration not stated)	29	61	24	–
CCN(CC)CCNC(=O)c1c(C)[nH]c(/C=C2\C(=O)Nc3ccc(F)cc32)c1C [SUNITINIB]	8	32	14	–
CS(=O)(=O)c1ccc(CC(=O)NC(Cc2ccccc2)C(=O)N2CCN(C3=Nc4ccccc4Sc4ccccc43)CC2)cc1 (configuration not stated)	32	56	28	–
O=C(NC(Cc1ccccc1)C(=O)N1CCN(C2=Nc3ccccc3Sc3ccccc32)CC1)c1ccc(I)cc1 (configuration not stated)	28	55	26	–
O=C(CCc1cccc(Cl)c1)NC(Cc1ccccc1)C(=O)N1CCN(C2=Nc3ccccc3Sc3ccccc32)CC1 (configuration not stated)	16	59	27	–
Cc1ccc(C(=O)NC(Cc2ccccc2)C(=O)N2CCN(C3=Nc4ccccc4Sc4ccccc43)CC2)cc1I (configuration not stated)	45	59	36	–
CC(C)(C(=O)NC(Cc1ccccc1)C(=O)N1CCN(C2=Nc3ccccc3Sc3ccccc32)CC1)c1ccc(C(=O)C2CC2)cc1 (configuration not stated)	17	34	14	44
O=C(Cc1ccc2c(c1)OCO2)NC(Cc1ccccc1)C(=O)N1CCN(C2=Nc3ccccc3Sc3ccccc32)CC1 (configuration not stated)	24	52	35	–
O=C(NC(Cc1ccccc1)C(=O)N1CCN(C2=Nc3ccccc3Sc3ccccc32)CC1)c1cnccn1 (configuration not stated)	15	38	16	62

Reference: ChEMBL document CHEMBL4052801, “Design, synthesis and anticancer activity of N-(1-(4-(dibenzo[b,f][1,4]thiazepin-11-yl)piperazin-1-yl)-1-oxo-3-phenylpropan-2-yl derivatives” (Bioorg Med Chem Lett, 2017)
